From paper PMC10584170, “Machine learning-based phenotypic imaging to characterise the targetable biology of Plasmodium falciparum male gametocytes for the development of transmission-blocking antimalarials” (PLOS Pathogens, 2023)

How the values were obtained:
[1] = system: P. falciparum female gametocytes; test: P. falciparum Dual Gamete Formation Assay (PfDGFA), female readout (Pfs25-positive female gametes); type: cell-based, Plasmodium falciparum NF54; conditions: for Average inhibition female (%): average of replicates; for % inhibition female (individual replicates) R1: replicate R1; for % inhibition female (individual replicates) R3: replicate R3; for % inhibition female (individual replicates) R4: replicate R4
Experimental: (§1) P. falciparum NF54 (originally isolated from an imported malaria case in the Netherlands in the 1980s; BEI Resources, cat. No. MRA-1000) strain asexual parasites were maintained between 0.3–5% parasitaemia by regular passage in complete culture medium (RPMI supplemented with 25 mM HEPES, 50 μg ml^−1 hypoxanthine, 4.8 g l^−1 NaHCO3, 2mM L-glutamine, 5% pooled type AB serum, 0.5% Albumax II (Gibco)) at 4% haematocrit in washed whole blood (National Blood and Transfusion Service or Centro de Transfusiones de la Comunidad de Madrid CTCM) under a 1% O2/3% CO2/96% N2 environment. Gametocytes were induced by seeding culture flasks at 2% parasitaemia/4% haematocrit and subjecting them to daily medium changes for 14 days whilst maintaining a temperature of 37°C at all times. On Day 14, the maturity of gametocytes was assessed by quantifying male gametogenesis (exflagellation). A 20 μl sample of gametocyte culture was mixed with equal volume of ookinete medium (complete culture medium supplemented with 0.1 μM xanthurenic acid) at room temperature and transferred to a haemocytometer. After 20 min at room temperature, exflagellation was accurately quantified as described in Delves et al. 2016 [17].
(§2) The Pf DGFA was performed as described in Delves et al. 2016 [17]. […] Plates were then incubated for 24 h at 37°C in a humidified box under a 1% O2/3% CO2/96% N2 gas mix. Gametogenesis was triggered by addition of 10 μl per well of ookinete medium + 0.27 μg ml^-1 Cy3-labelled anti-Pfs25 antibody. Plates were incubated on a metal block at 4°C for 4 min to ensure even cooling, then 28°C for a further 4 min. Exflagellation was recorded by capturing 10 frames over 1 s under brightfield illumination using a x4 objective with a 1.5x zoom (effectively x6) attached to an automated Nikon Ti fluorescence microscope. After recording exflagellation, plates were incubated for a further 24 h in the dark at 28°C to ensure maximal expression of Pfs25 by female gametes. The plates were then returned to the microscope and female gametes imaged at x6 using fluorescence microscopy.
(§3) Exflagellation centres and female gametes were quantified using custom image analysis pipelines developed within ICY Bioimage Analysis (https://icy.bioimageanalysis.org/).

[2] = system: P. falciparum male gametocytes; test: P. falciparum Dual Gamete Formation Assay (PfDGFA), male readout (exflagellation); type: cell-based, Plasmodium falciparum NF54; conditions: for Average inhibition male (%): average of replicates; for % inhibition male (individual replicates) R1: replicate R1; for % inhibition male (individual replicates) R3: replicate R3; for % inhibition male (individual replicates) R4: replicate R4; for Activity: hit = >50% inhibition in male or female readout in at least 3 replicates, 0 = no class assigned
Experimental: as §1, §2, §3

[3] = 2µM, 24h preincubation with gametocytes prior to induction of gametogenesis
[4] = 2µM, 24h preincubation, hits selected on >50% inhibition in the female readout across replicates
[5] = 2µM, 24h preincubation, hits selected on >50% inhibition in the male readout across replicates
[6] = PfDGFA at 2µM, 24h preincubation
[7] = PfDGFA at 2µM, 24h preincubation with gametocytes prior to induction of gametogenesis
[8] = 2µM, 24h preincubation, number of replicates with >50% inhibition in the female readout
[9] = 2µM, 24h preincubation, number of replicates with >50% inhibition in the male readout
[10] = 2µM, 24h preincubation with gametocytes

Compound | Average inhibition female (%) [1, 3] [%] | % inhibition female (individual replicates) R1 [1, 3] [%] | % inhibition female (individual replicates) R3 [1, 3] [%] | % inhibition female (individual replicates) R4 [1, 3] [%] | HitlevelF [1, 4] | Average inhibition male (%) [2, 3] [%] | % inhibition male (individual replicates) R1 [2, 3] [%] | % inhibition male (individual replicates) R3 [2, 3] [%] | % inhibition male (individual replicates) R4 [2, 3] [%] | HitlevelM [2, 5] | Activity [2, 6] | % inhibition female (individual replicates) R1 [1, 7] [%] | % inhibition female (individual replicates) R3 [1, 7] [%] | % inhibition female (individual replicates) R4 [1, 7] [%] | Average inhibition female (%) [1, 6] [%] | % inhibition male (individual replicates) R1 [2, 7] [%] | % inhibition male (individual replicates) R3 [2, 7] [%] | % inhibition male (individual replicates) R4 [2, 7] [%] | Average inhibition male (%) [2, 6] [%] | other results
Br.Oc1cccc(CCNCCCCCCNCCc2ccc(Cl)cc2)c1 [TCMDC-131285] | 14.3 | 12.4 | 15.9 | 17.3 | 0 | 17.5 | 13.8 | 6.4 | 28.9 | 0 | 0 | – | – | – | – | – | – | – | – | –
Cl.NC1=NC(CCc2ccccc2)N(c2ccc(Cl)cc2)C(N)=N1 (stereo not drawn) [TCMDC-131290] | – | – | – | – | – | – | – | – | – | – | – | 1.0 | -2.9 | -19.8 | -10.7 | -21.3 | -9.1 | -39.8 | -16.9 | –
Br.CCCC1N=C(N)N=C(N)N1c1ccc(CC)cc1 (stereo not drawn) [TCMDC-131300] | 5.7 | 16.1 | 10.4 | 12.0 | 0 | -2.2 | 7.1 | 2.2 | -35.1 | 0 | 0 | – | – | – | – | – | – | – | – | –
CNCCCCCCOc1ccc(CC(C)NCC(O)c2cccc(C(F)(F)F)c2)cc1.Cl (stereo not drawn) [TCMDC-131523] | – | – | – | – | – | – | – | – | – | – | – | 10.7 | -17.9 | 1.1 | -0.7 | 2.8 | -13.3 | 4.2 | -0.8 | –
C[C@H](Cc1ccc(OCCNC[C@H](O)c2cccc(Cl)c2)cc1)NC[C@H](O)c1ccc(Cl)c(Cl)c1.O [TCMDC-131547] | 17.7 | 20.3 | 33.9 | 3.3 | 0 | 22.6 | 62.1 | 23.6 | 9.5 | 1 | 0 | – | – | – | – | – | – | – | – | –
C[C@H](Cc1ccc(S(=O)(=O)c2ccc(C[C@@H](C)NC[C@H](O)c3cccc(Cl)c3)cc2)cc1)NC[C@H](O)c1cccc(Cl)c1.Cl [TCMDC-131561] | 28.9 | 27.9 | 9.1 | 30.5 | – | 47.9 | 47.0 | 11.1 | 74.2 | – | – | – | – | – | – | – | – | – | – | HitlevelF [1, 8]: 0; HitlevelM [2, 9]: 2
CC1(C)N=C(NC(=O)c2ccc([N+](=O)[O-])cc2)N=C(N)N1OCc1ccc2ccccc2c1 [TCMDC-131580] | – | – | – | – | – | – | – | – | – | – | – | 12.5 | -19.7 | 0.76 | 3.4 | 21.0 | -18.0 | -29.1 | -7.9 | –
CC1(C)N=C(N)N=C(N)N1OCc1cc(Cl)c(CON2C(N)=NC(N)=NC2(C)C)cc1Cl [TCMDC-131624] | – | – | – | – | – | – | – | – | – | – | – | 0.3 | 11.6 | 5.2 | 2.9 | 2.1 | – | -25.6 | -4.5 | –
Cc1ccc(CON2C(N)=NC(N)=NC2(C)C)c(Cl)c1.Cc1ccc(CON2C(N)=NC(N)=NC2(C)C)cc1Cl [TCMDC-131625] | – | – | – | – | – | – | – | – | – | – | – | -4.8 | -23.0 | 21.6 | -0.55 | 26.3 | -30.0 | -18.5 | -5.6 | –
CC(=O)c1ccc(NC(=O)NNC(=O)c2ccc(CCN3CCC(c4nc(COCC(F)(F)F)c(-c5ccc(F)cc5)o4)CC3)cc2)cc1 [TCMDC-131905] | – | – | – | – | – | – | – | – | – | – | – | 5.8 | -31.0 | 36.9 | 3.6 | 1.3 | 7.6 | 18.2 | 9.5 | –
COc1cc2ncnc(Nc3ccc(OCc4ccccc4)c(OCc4ccccc4)c3)c2cc1OC.Cl [TCMDC-131922] | 10.3 | 5.3 | 31.5 | 4.3 | 0 | 5.7 | 10.5 | 8.7 | 6.9 | 0 | 0 | – | – | – | – | – | – | – | – | –
Nc1nc(N)c2c(ccc3c2cnn3Cc2cccnc2)n1 [TCMDC-131932] | 18.1 | 3.3 | 58.3 | 1.8 | – | 12.5 | 4.3 | 31.7 | 1.1 | – | – | – | – | – | – | – | – | – | – | HitlevelF [1, 8]: 1; HitlevelM [2, 9]: 0
COc1ccc2nc(Nc3nc4cnccc4[nH]3)sc2c1 [TCMDC-131950] | 7.4 | 12.1 | -4.5 | 3.8 | 0 | -15.4 | -6.4 | -26.4 | -8.5 | 0 | 0 | – | – | – | – | – | – | – | – | –
O=[N+]([O-])c1ccc(C=NO)nc1 [TCMDC-131967] | – | – | – | – | – | – | – | – | – | – | – | – | – | – | – | – | – | – | – | Average inhibition female (%) [1, 10]: 41.1%; % inhibition female (individual replicates) R1 [1, 10]: 34.5%; % inhibition female (individual replicates) R3 [1, 10]: 28.1%; % inhibition female (individual replicates) R4 [1, 10]: 43.8%; Average inhibition male (%) [2, 10]: 97.7%; % inhibition male (individual replicates) R1 [2, 10]: 97.9%; % inhibition male (individual replicates) R3 [2, 10]: 95.1%; % inhibition male (individual replicates) R4 [2, 10]: 101.6%
CS(=O)(=O)c1ccc(-n2nc(C(F)(F)F)cc2-c2ccc(C=NOCC(=O)O)o2)cc1 [TCMDC-132015] | – | – | – | – | – | – | – | – | – | – | – | 5.4 | -21.4 | 0.25 | -6.9 | 7.6 | -4.4 | -18.5 | -6.3 | –
